Assays:
[1] = target: T1, human D3 receptor (Homo sapiens, UniProt P35462); assay: D3 binding assay (125I-iodosulpiride, cloned human D3 receptor-expressing CCL 1.3 mouse fibroblasts); details: for Ki: 0.1 nM 125 iodosulpiride, 60 min, 30° C., read-out: Receptor binding D3 125I-sulpiride Ki; for Selectivity Ki D2 /Ki D3: ratio D2 (3H-spiperone) to D3 (125I-sulpiride)
T1 construct: (Natick, Mass., USA); host or cells: CCL 1.3 mouse fibroblasts
Description: Cloned human D3 receptor-expressing CCL 1.3 mouse fibroblasts obtained from Res. Biochemicals Internat. One Strathmore Rd., Natick, Mass. 01760-2418 USA, were used for the binding studies.
The D3 -expressing cells were grown in RPMI-1640 containing 10% fetal calf serum (GIBCO No. 041-32400 N); 100 U/ml penicillin and 0.2% streptomycin (GIBCO BRL, Gaithersburg, Md., USA). After 48 h, the cells were washed with PBS and incubated with 0.05% trypsin-containing PBS for 5 min. Neutralization with medium was then carried out, and the cells were collected by centrifugation at 300×g. To lyze the cells, the pellet was briefly washed with lysis buffer (5 mM tris-HCl, pH 7.4, with 10% glycerol) and then incubated in a concentration of 10^7 cells/ml of lysis buffer at 4° C. for 30 min. The cells were centrifuged at 200×g for 10 min and the pellet was stored in liquid nitrogen.
For the D3 receptor-binding assay, the membranes were suspended in incubation buffer (50 mM tris-HCl, pH 7.4, with 120 mM NaCl, 5 mM KCl, 2 mM CaCl2, 2mM MgCl2, 10 μM quinolinol, 0.1% ascorbic acid and 0.1% BSA) in a concentration of about 10^6 cells/250 μl of assay mixture and incubated at 30° C. with 0.1 nM ^125 iodosulpiride in the presence and absence of test substance. The non-specific binding was determined using 10^-6 M spiperone.
After 60 min, the free and the bound radioligand was separated by filtration through GF/B glass fiber filters (Whatman, England) on a Skatron cell collector (Skatron, Lier, Norway), and the filters were washed with ice-cold tris-HCl buffer, pH 7.4. The radioactivity collected on the filters was quantified using a Packard 2200 CA liquid scintillation counter.
The Ki values were determined by non-linear regression analysis using the LIGAND program.

[2] = target: T2, D2 receptor (Bos taurus, UniProt P20288); assay: D2 binding assay (3H-spiperone, D2low, bovine nucleus caudatus membranes); details: 0.2 nmol/l 3H-spiperone (D2low), 25° C., 60 min
T2 construct: Nucleus caudatus was removed from bovine brain; from tissue; host or cells: bovine nucleus caudatus membranes
Description: a) Nucleus caudatus (bovine)
Nucleus caudatus was removed from bovine brain and washed with ice-cold 0.32 M sucrose solution. After determination of the weight, the material was comminuted and homogenized in 5-10 volumes of sucrose solution using a Potter-Evehjem [sic] homogenizer (500 rpm). The homogenate was centrifuged at 3,000×g for 15 minutes (4° C.), and the resulting supernatant was subjected to another 15-minute centrifugation at 40,000×g. The residue was then washed twice, by resuspension and centrifugation, with 50 mM tris-HCl, pH 7.4. The membranes were stored in liquid nitrogen until used.
a) ^3 H-Spiperone (D2low)
Nucleus caudatus membranes were taken up in incubation buffer (mM: tris-HCl 50, NaCl 120, KCl 5, MgCl2 1, CaCl2 2, pH 7.4). Various mixtures, each of 1 ml, were prepared:
Total binding: 400 μg of membranes+0.2 nmol/l ^3 H-spiperone (Du Pont de Nemours, NET-565).
Non-specific binding: as mixtures for total binding+10 μM (+)-butaclamol.
Test substance: as mixtures for total binding+increasing concentrations of test substance.
After incubation at 25° C. for 60 minutes, the mixtures were filtered through GF/B glass fibre filters (Whatman, England) on a Skatron cell collector (from Zinsser, Frankfurt), and the filters were washed with ice-cold 50 mM tris-HCl buffer, pH 7.4. The radioactivity collected on the filters was quantified using a Packard 2200 CA liquid scintillation counter.
The Ki values were determined by non-linear regression analysis using the LIGAND program or by conversion of the IC50 values using the formula of Cheng and Prusoff.

T1 sequence (P35462 whole entry): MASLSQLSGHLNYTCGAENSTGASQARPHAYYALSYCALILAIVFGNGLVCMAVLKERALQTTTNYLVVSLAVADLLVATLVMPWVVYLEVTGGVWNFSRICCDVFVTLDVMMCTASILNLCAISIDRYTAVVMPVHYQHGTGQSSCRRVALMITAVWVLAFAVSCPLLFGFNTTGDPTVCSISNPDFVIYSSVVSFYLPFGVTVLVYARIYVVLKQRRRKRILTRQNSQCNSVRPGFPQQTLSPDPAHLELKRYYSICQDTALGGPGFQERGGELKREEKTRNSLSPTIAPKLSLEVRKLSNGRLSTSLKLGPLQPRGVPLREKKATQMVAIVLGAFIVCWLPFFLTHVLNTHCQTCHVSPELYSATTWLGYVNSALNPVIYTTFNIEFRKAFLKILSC
T2 sequence (P20288 whole entry): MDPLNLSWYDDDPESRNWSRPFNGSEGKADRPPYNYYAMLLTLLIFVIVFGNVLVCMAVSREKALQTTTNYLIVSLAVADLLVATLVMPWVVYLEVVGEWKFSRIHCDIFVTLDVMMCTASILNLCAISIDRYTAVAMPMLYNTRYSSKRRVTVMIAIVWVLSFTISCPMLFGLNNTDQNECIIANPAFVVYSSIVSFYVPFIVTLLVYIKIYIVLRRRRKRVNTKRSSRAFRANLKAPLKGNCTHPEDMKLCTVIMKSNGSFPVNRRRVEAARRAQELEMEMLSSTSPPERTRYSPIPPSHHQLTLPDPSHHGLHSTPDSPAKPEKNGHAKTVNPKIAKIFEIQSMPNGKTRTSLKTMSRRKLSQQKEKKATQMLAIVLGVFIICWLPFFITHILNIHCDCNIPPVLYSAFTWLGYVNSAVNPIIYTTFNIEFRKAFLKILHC

SMILES | Ki [1] [nM] | Selectivity Ki D2 /Ki D3 [1] | Ki [2] [nM]
Nc1nnc(CCCCCCN2CCN(c3cccc(C(F)(F)F)c3)CC2)s1 [Example 2] | 1.4 | 46 | 65
Nc1nnc(SCCCN2CCN(c3cc(Cl)cc(Cl)c3)CC2)s1 [Example 13] | 0.6 | 41 | 25
CC(CSc1nnc(N)s1)CN1CCN(c2cccc(C(F)(F)F)c2)CC1 (stereo not drawn) [Example 16] | 10.9 | 36 | 402
Nc1nnc(SCCCN2CCN(c3cccc(C(F)(F)F)n3)CC2)s1 [Example 23] | 6.3 | 31 | 200
CC(C)c1cccc(N2CCN(CCCCCCCSc3nnc(N)s3)CC2)c1 [Example 49] | 6.5 | 86 | 560
N#Cc1cccc(N2CCN(CCCCCCCCSc3nnc(N)s3)CC2)c1 [Example 51] | 8.3 | 62 | 500
Nc1nnc(SCC=CCN2CCN(c3cccc(C(F)(F)F)n3)CC2)s1 [Example 53] | 2.95 | 50 | 145
Cc1cc(N2CCN(CCCSc3nnc(N)s3)CC2)nc(-n2cccc2)n1 [Example 56] | 27 | 70 | 3500
CC(C)(C)c1cc(N2CCN(CCCSc3nnc(N)s3)CC2)nc(C(C)(C)C)n1 [Example 58] | 1.7 | 132 | 225

From patent publication US5958923A, “Use of thiazole and thiadiazole compounds” (BASF Aktiengesellschaft, priority 1994, dated 1999)
